According to US20210255193A1, “LYSINE REACTIVE PROBES AND USES THEREOF” (The Scripps Research Institute, priority 2017, published 2021):

How the values were obtained:
[1] = target: T1, HDHD3 Haloacid dehalogenase-like hydrolase domain-containing protein 3 (Homo sapiens, UniProt Q9BSH5); assay: competitive isoTOP-ABPP; format: binding; design: key to isoTOP-ABPP reactivity ratio at lysine Q9BSH5_K15: R = MS1 peak area ratio, DMSO (heavy) / compound-treated (light); conditions: 50 uM, in vitro; for R value (DMSO/fragment) for probe 1 labeling: Q9BSH5_K15; for R value (DMSO/fragment) for probe 1 labeling / isoTOP-ABPP reactivity ratio at lysine Q9BSH5_K15: 231 sol; for isoTOP-ABPP ratio (R) at liganded lysine Q9BSH5_K15: sol, 231
T1 construct: isoTOP-ABPP experiments performed in cell lysates (in vitro); endogenous in cells; host or cells: soluble proteome of human cancer cell lines (MDA-MB-231; Ramos and Jurkat also prepared)
T1 sequence (Q9BSH5 1-251): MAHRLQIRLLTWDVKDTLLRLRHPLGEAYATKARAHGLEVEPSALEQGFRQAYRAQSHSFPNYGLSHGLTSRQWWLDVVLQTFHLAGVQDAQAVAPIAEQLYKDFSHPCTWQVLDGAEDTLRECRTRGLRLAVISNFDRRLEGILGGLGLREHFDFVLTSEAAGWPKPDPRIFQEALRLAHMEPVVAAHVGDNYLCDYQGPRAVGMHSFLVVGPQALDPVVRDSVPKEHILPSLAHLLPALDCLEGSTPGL
Method: (§1) In vitro covalent fragment treatment for isoTOP-ABPP. All compounds were made up as solutions in DMSO (100×) and were used at a final concentration of 50 μM for activated esters and 100 μM for guanidinylating agents. For each profiling sample, 0.5 ml of lysate was treated with 5 μl of the 100× compound stock solution or 5 μl of DMSO. Samples were treated with activated esters for
(§2) STP-alkyne labeling and click chemistry. For concentration-dependent reactivity measurements by isoTOP-ABPP, 0.5 ml proteome aliquots were treated at ambient temperature with 1 mM STP-alkyne 1 (5 μl of 100 mM stock in DMSO) and 0.1 mM STP alkyne 1 (5 μl of 10 mM stock in DMSO), respectively. For competitive isoTOP-ABPP, after in vitro fragment treatment (detailed above), the samples were labeled for 1 h at ambient temperature with 0.1 mM STP-alkyne 1 (5 μl of 10 mM stock in DMSO). Samples were conjugated by copper-mediated azide-alkyne cycloaddition (CuAAC) to either the light (1 mM STP-alkyne or fragment treated) or heavy (0.1 mM STP-alkyne or DMSO treated) TEV tags (10 μl of 5 mM stocks in DMSO, final concentration=100 μM) using tris(2-carboxyethyl)phosphine hydrochloride
(§3) R value calculation and processing. The ratios of light and heavy MS1 peaks for each unique peptide were quantified with a CIMAGE software using default parameters (3 MS1 acquisitions per peak and signal to noise threshold set to 2.5). For reactivity measurements by isoTOP-ABPP, the R value was calculated from the ratio of MS1 peak areas, comparing the 1 mM STP alkyne sample (light TEV tag) with the 0.1 mM STP alkyne sample (heavy TEV tag). For competitive isoTOP-ABPP, the R value was calculated from the ratio of MS1 peak areas, comparing the DMSO treated sample (heavy TEV tag) with the compound treated sample (light TEV tag). […] Ratios for unique peptide entries are calculated for each experiment; overlapping peptides with the same modified lysine (for example, different charge states, MudPIT chromatographic steps or tryptic termini) are grouped together and the median ratio is reported as the final ratio (R). The peptide ratios reported by CIMAGE were further filtered to ensure the removal or correction of low-quality ratios in each individual data set. The quality filters applied were the following: removal of half tryptic peptides; for ratios with high standard deviations from the median (90% of the median or above) the lowest ratio was taken instead of the median; removal of peptides with R=20 and only a single MS2 event triggered during the elution of the parent ion; manual annotation of all the peptides with ratios of 20, removing any peptides with low quality elution profiles that remained after the previous curation steps (only done for competitive isoTOP-ABPP).
(§4) Cross-data processing for fragment screening. For compound treated samples, biological replicates of the same condition were averaged, if the standard deviation was below 60% of the mean; otherwise, for lysines with at least one R value <4 for a particular compound, the lowest value of the ratio set was taken. For lysines, where all R values for a particular compound were ≥4, the average was reported. For peptides containing several possible modified lysines, the lysine with the highest number of quantification events was used for analysis and the remaining, redundant peptides were reported as alternative modification sites. Peptides included in the aggregate dataset (those used for further bioinformatics and statistical analyses) were required to have been quantified in 2 experiments for competitive isoTOP-ABPP. Lysines were categorized as liganded, if they had at least one ratio R≥4 (hit fragments). For liganded lysines with R=20 for all liganding events, lysines were required to have been quantified with R=20 in two separate experiments and were further required to have been quantified with R<20 in one additional experiment.

[2] = target: T2, ACBD3 Golgi resident protein GCP60 (Homo sapiens, UniProt Q9H3P7); assay: competitive isoTOP-ABPP; format: binding; design: key to isoTOP-ABPP reactivity ratio at lysine Q9H3P7_K117: R = MS1 peak area ratio, DMSO (heavy) / compound-treated (light); conditions: 50 uM, in vitro; for R value (DMSO/fragment) for probe 1 labeling: Q9H3P7_K117; for R value (DMSO/fragment) for probe 1 labeling / isoTOP-ABPP reactivity ratio at lysine Q9H3P7_K117: 231 sol; for isoTOP-ABPP ratio (R) at liganded lysine Q9H3P7_K117: sol, 231
T2 construct: isoTOP-ABPP experiments performed in cell lysates (in vitro); endogenous in cells; host or cells: soluble proteome of human cancer cell lines (MDA-MB-231; Ramos and Jurkat also prepared)
T2 sequence (Q9H3P7 1-528): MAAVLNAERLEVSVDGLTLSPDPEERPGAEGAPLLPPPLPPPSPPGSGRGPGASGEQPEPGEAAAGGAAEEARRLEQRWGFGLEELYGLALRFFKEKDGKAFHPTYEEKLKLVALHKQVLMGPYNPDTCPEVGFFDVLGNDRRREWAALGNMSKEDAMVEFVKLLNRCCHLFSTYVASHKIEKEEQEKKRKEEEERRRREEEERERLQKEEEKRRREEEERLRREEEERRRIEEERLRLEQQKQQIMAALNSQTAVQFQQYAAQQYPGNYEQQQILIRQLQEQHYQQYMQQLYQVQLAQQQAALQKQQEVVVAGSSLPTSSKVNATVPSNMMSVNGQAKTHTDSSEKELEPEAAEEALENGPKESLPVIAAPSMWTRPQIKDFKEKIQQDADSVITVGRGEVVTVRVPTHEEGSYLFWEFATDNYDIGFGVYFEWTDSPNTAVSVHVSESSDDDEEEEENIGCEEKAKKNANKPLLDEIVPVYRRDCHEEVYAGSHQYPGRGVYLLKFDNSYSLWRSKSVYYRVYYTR
Method: as §1, §2, §3, §4

| Structure (SMILES) | isoTOP-ABPP reactivity ratio at lysine Q9BSH5_K15 [1] | isoTOP-ABPP reactivity ratio at lysine Q9H3P7_K117 [2] | isoTOP-ABPP ratio (R) at liganded lysine Q9BSH5_K15 [1] | isoTOP-ABPP ratio (R) at liganded lysine Q9H3P7_K117 [2] | further results |
| --- | --- | --- | --- | --- | --- |
| O=C(CCc1cn(-c2ccccc2)nc1-c1ccccc1)Oc1c(F)c(F)c(F)c(F)c1F [fragment 19, Pentafluorophenyl 3-(1,3-diphenyl-1H-pyrazol-4-yl)propanoate] | – | – | – | – | R value (DMSO/fragment) for probe 1 labeling [1]: 20.0; R value (DMSO/fragment) for probe 1 labeling [2]: 1.0 |
| O=C(Oc1c(F)c(F)c(F)c(F)c1F)C(c1ccccc1)c1ccccc1 [fragment 20, Pentafluorophenyl 2,2-diphenylacetate] | – | – | – | – | R value (DMSO/fragment) for probe 1 labeling [1]: 1.1; R value (DMSO/fragment) for probe 1 labeling [2]: 1.2 |
| O=C(Oc1c(F)c(F)c(F)c(F)c1F)c1cc(C(F)(F)F)cc(C(F)(F)F)c1 [fragment 21, Pentafluorophenyl 3,5-bis(trifluoromethyl)benzoate] | – | – | – | – | R value (DMSO/fragment) for probe 1 labeling [1]: 1.0; R value (DMSO/fragment) for probe 1 labeling [2]: 0.9 |
| Cn1cc(CC(=O)Oc2c(F)c(F)c(F)c(F)c2F)c2ccccc21 [fragment 22, Pentafluorophenyl 2-(1-methyl-1H-indol-3-yl)acetate] | – | – | – | – | R value (DMSO/fragment) for probe 1 labeling [1]: 1.1; R value (DMSO/fragment) for probe 1 labeling [2]: 1.2 |
| COc1cc(CCC(=O)Oc2c(F)c(F)c(F)c(F)c2F)cc(OC)c1OC [fragment 23, Pentafluorophenyl 3-(3,4,5-trimethoxyphenyl)propanoate] | – | – | – | – | R value (DMSO/fragment) for probe 1 labeling [1]: 1.3; R value (DMSO/fragment) for probe 1 labeling [2]: 1.2 |
| O=C(Oc1c(F)c(F)c(F)c(F)c1F)C1CCN(C(=O)OCc2ccccc2)CC1 [fragment 24, 1-Benzyl 4-(pentafluorophenyl) piperidine-1,4-dicarboxylate] | 2.3 | 1.0 | – | – | – |
| O=C(Oc1c(F)c(F)c(F)c(F)c1F)c1ccc2ccccc2n1 [fragment 25, Pentafluorophenyl quinoline-2-carboxylate] | 4.0 | 1.7 | – | – | – |
| O=C(CCc1coc2cc(F)ccc2c1=O)Oc1c(F)c(F)c(F)c(F)c1F [fragment 26, Pentafluorophenyl 3-(7-fluoro-4-oxo-4H-chromen-3-yl)propanoate] | 3.4 | 1.8 | – | – | – |
| O=C(CN1C(=O)c2ccccc2C1=O)Oc1c(F)c(F)c(F)c(F)c1F [fragment 27, Pentafluorophenyl 2-(1,3-dioxoisoindolin-2-yl)acetate] | 2.3 | 1.9 | – | – | – |
| CCn1cc(C(=O)Oc2c(F)c(F)c(F)c(F)c2F)c(=O)c2ccc(C)nc21 [fragment 28, Pentafluorophenyl 1-ethyl-7-methyl-4-oxo-1,4-dihydro-1,8-naphthyridine-3-carboxylate] | 13.8 | 1.1 | – | – | – |
| O=C(CCc1cn(-c2ccccc2)nc1-c1ccccc1)Oc1ccc([N+](=O)[O-])cc1[N+](=O)[O-] [fragment 29, 2,4-Dinitrophenyl 3-(1,3-diphenyl-1H-pyrazol-4-yl)propanoate] | 20.0 | 1.0 | – | – | – |
| O=C(Oc1ccc([N+](=O)[O-])cc1[N+](=O)[O-])C(c1ccccc1)c1ccccc1 [fragment 30, 2,4-Dinitrophenyl 2,2-diphenylacetate] | 20.0 | 1.7 | – | – | – |
| O=C(Oc1ccc([N+](=O)[O-])cc1[N+](=O)[O-])c1cc(C(F)(F)F)cc(C(F)(F)F)c1 [fragment 31, 2,4-Dinitrophenyl 3,5-bis(trifluoromethyl)benzoate] | 4.6 | 1.1 | – | – | – |
| Cn1cc(CC(=O)Oc2ccc([N+](=O)[O-])cc2[N+](=O)[O-])c2ccccc21 [fragment 32, 2,4-Dinitrophenyl 2-(1-methyl-1H-indol-3-yl)acetate] | 6.7 | 1.3 | – | – | – |
| COc1cc(CCC(=O)Oc2ccc([N+](=O)[O-])cc2[N+](=O)[O-])cc(OC)c1OC [fragment 33, 2,4-Dinitrophenyl 3-(3,4,5-trimethoxyphenyl)propanoate] | 1.5 | 1.1 | – | – | – |
| O=C(Oc1ccc([N+](=O)[O-])cc1[N+](=O)[O-])C1CCN(C(=O)OCc2ccccc2)CC1 [fragment 34, 1-Benzyl 4-(2,4-dinitrophenyl) piperidine-1,4-dicarboxylate] | – | – | 4.1 | 1.1 | – |
| O=C(Oc1ccc([N+](=O)[O-])cc1[N+](=O)[O-])c1ccc2ccccc2n1 [fragment 35, 2,4-Dinitrophenyl quinoline-2-carboxylate] | – | – | 7.0 | 1.3 | – |
| O=C(CCc1coc2cc(F)ccc2c1=O)Oc1ccc([N+](=O)[O-])cc1[N+](=O)[O-] [fragment 36, 2,4-Dinitrophenyl 3-(7-fluoro-4-oxo-4H-chromen-3-yl)propanoate] | – | – | 10.4 | 1.4 | – |
| O=C(Oc1ccc([N+](=O)[O-])cc1[N+](=O)[O-])c1ccc(-c2ccccc2)cc1 [fragment 37, 2,4-Dinitrophenyl [1,1′-biphenyl]-4-carboxylate] | – | – | 4.3 | 0.9 | – |
| O=C(CC12CC3CC(CC(C3)C1)C2)Oc1ccc([N+](=O)[O-])cc1[N+](=O)[O-] [fragment 38, 2,4-Dinitrophenyl 2-(adamantan-1-yl)acetate] | – | – | 1.2 | 1.0 | – |
| O=C(Oc1ccc([N+](=O)[O-])cc1[N+](=O)[O-])c1ccc(Oc2ccccc2)cc1 [fragment 39, 2,4-Dinitrophenyl 4-phenoxybenzoate] | – | – | 1.3 | 0.9 | – |
| O=C(Oc1ccc([N+](=O)[O-])cc1[N+](=O)[O-])c1ccccc1Nc1cccc(C(F)(F)F)c1 [fragment 40, 2,4-Dinitrophenyl 2-((3-(trifluoromethyl)phenyl)amino)benzoate] | – | – | 0.9 | 0.9 | – |
